Assay results taken from EPA's ToxRefDB 2.

Key:
rat [1] = details: Subchronic oral toxicity in rodents, sprague dawley, Feed, dose end: 13 week, group: systemic, systemic / in life observation / body weight / body weight gain + systemic / organ weight / kidney / relative to body weight
rat [2] = details: Multigenerational reproductive toxicity study, sprague dawley, Oral, Feed, dose end: 2 generation
dog [3] = details: Chronic toxicity, beagle, Oral, Capsule, dose end: 52 week, group: systemic
rabbit [4] = details: Prenatal developmental toxicity study, new zealand white, Oral, Gavage/Intubation, dose end: 19 GD
mouse = details: Carcinogenicity, cd1, Oral, Feed, dose end: 18 month, group: systemic
dog [5] = details: Subchronic oral toxicity in nonrodent, beagle, Capsule, dose end: 13 week, group: systemic
rat [6] = details: Combined chronic toxicity/carcinogenicity, sprague dawley, Oral, Feed, dose end: 2 year, group: systemic
rat [7] = details: Prenatal developmental toxicity study, sprague dawley, Oral, Gavage/Intubation, dose end: 15 GD
rat [8] = details: Subchronic oral toxicity in rodents, fischer, Feed, dose end: 90 day, group: systemic, systemic / pathology microscopic / stomach / erosion + systemic / pathology microscopic / stomach / hyperkeratosis + systemic / pathology …
rabbit [9] = details: Prenatal developmental toxicity study, other, Oral, Gavage/Intubation, dose end: 18 GD
[10] = group: offspring, developmental / offspring survival late / viability index / viability index + developmental / offspring survival late / lactation index / …
[11] = group: offspring, developmental / offspring survival late / viability index / viability index + systemic / in life observation / body weight / offspring (pup…
[12] = group: parental, systemic / in life observation / body weight / body weight + systemic / in life observation / body weight / body weight gain + systemic / …
[13] = systemic / pathology microscopic / liver / pigmentation + systemic / hematology / erythrocyte (rbc) count differential / erythrocyte (rbc…
[14] = systemic / pathology microscopic / liver / pigmentation + systemic / pathology microscopic / epididymis / inflammation + systemic / …
[15] = group: developmental, developmental / developmental malformation / bone / unossified + developmental / developmental malformation / brain / hydrocephalus + …
[16] = group: maternal, reproductive / reproductive performance / aborted / aborted + systemic / in life observation / body weight / body weight gain + systemic / …
[17] = systemic / in life observation / mortality / mortality + systemic / pathology microscopic / bone marrow / hyperplasia + systemic / pathology…
[18] = systemic / organ weight / brain / relative to body weight
[19] = systemic / pathology microscopic / thymus / involution + systemic / clinical chemistry / alanine aminotransferase (alt/sgpt) / alanine …
[20] = systemic / pathology microscopic / thymus / involution + systemic / pathology microscopic / epididymis / reduced spermatogenesis + systemic…
[21] = systemic / pathology gross / liver / foci
[22] = group: developmental, developmental / developmental malformation / bone / [other] + developmental / developmental malformation / kidney / dilated renal pelvis + …
[23] = group: maternal, systemic / in life observation / body weight / body weight gain + systemic / in life observation / food consumption / food consumption
[24] = group: maternal, systemic / in life observation / body weight / body weight gain + systemic / in life observation / food consumption / food consumption + …
[25] = group: developmental, developmental / developmental malformation / bone / branched + developmental / developmental malformation / bone / full supernumerary

SMILES: CCc1c(C(=O)[O-])c(=O)cnn1-c1ccc(Cl)cc1.[K+] [Clofencet-potassium]
- LEL (rat [1]): 1480 mg/kg/day
- LOAEL (rat [1]): 1480 mg/kg/day
- NEL (rat [1]): 373 mg/kg/day
- NOAEL (rat [1]): 373 mg/kg/day
- LEL (rat [2]; [10]): 393 mg/kg/day
- LOAEL (rat [2]; [10]): 393 mg/kg/day
- NEL (rat [2]; [11]): 38 mg/kg/day
- NOAEL (rat [2]; [11]): 38 mg/kg/day
- LEL (rat [2]; [12]): 1600 mg/kg/day
- LOAEL (rat [2]; [12]): 1600 mg/kg/day
- NEL (rat [2]; [12]): 393 mg/kg/day
- NOAEL (rat [2]; [12]): 393 mg/kg/day
- NEL (dog [3]; [13]): 5 mg/kg/day
- NOAEL (dog [3]; [13]): 5 mg/kg/day
- LEL (dog [3]; [14]): 30 mg/kg/day
- LOAEL (dog [3]; [14]): 30 mg/kg/day
- LEL (rabbit [4]; [15]): 500 mg/kg/day
- LOAEL (rabbit [4]; [15]): 500 mg/kg/day
- NEL (rabbit [4]; [15]): 150 mg/kg/day
- NOAEL (rabbit [4]; [15]): 150 mg/kg/day
- LEL (rabbit [4]; [16]): 500 mg/kg/day
- LOAEL (rabbit [4]; [16]): 500 mg/kg/day
- NEL (rabbit [4]; [16]): 150 mg/kg/day
- NOAEL (rabbit [4]; [16]): 150 mg/kg/day
- LOAEL (mouse; [17]): 1230 mg/kg/day
- NOAEL (mouse; [17]): 501 mg/kg/day
- LEL (mouse; [18]): 11.4 mg/kg/day
- NEL (mouse; [18]): < 11.4 mg/kg/day
- NEL (dog [5]; [19]): 50 mg/kg/day
- NOAEL (dog [5]; [19]): 50 mg/kg/day
- LEL (dog [5]; [20]): 200 mg/kg/day
- LOAEL (dog [5]; [20]): 200 mg/kg/day
- LOAEL (rat [6]; systemic / in life observation / clinical signs / urine, discoloration + systemic / pathology gross / lung / foci + systemic / pathology …): 470 mg/kg/day
- LEL (rat [6]; [21]): 4.7 mg/kg/day
- NEL (rat [6]; [21]): < 4.7 mg/kg/day
- NOAEL (rat [6]; systemic / pathology gross / liver / foci + systemic / in life observation / clinical signs / urine, discoloration + systemic / pathology …): 47 mg/kg/day

SMILES: CC(C)C1CCC(Cc2ccc(Cl)cc2)C1(O)Cn1cncn1 (stereo unspecified) [Ipconazole]
- LEL (rat [7]; [22]): 30 mg/kg/day
- LOAEL (rat [7]; [22]): 30 mg/kg/day
- NEL (rat [7]; [22]): 10 mg/kg/day
- NOAEL (rat [7]; [22]): 10 mg/kg/day
- LOAEL (rat [7]; [23]): 30 mg/kg/day
- LEL (rat [7]; [24]): 30 mg/kg/day
- NEL (rat [7]; [24]): 10 mg/kg/day
- NOAEL (rat [7]; [24]): 10 mg/kg/day
- LEL (rat [8]): 29.9 mg/kg/day
- LOAEL (rat [8]): 29.9 mg/kg/day
- NEL (rat [8]): 7.22 mg/kg/day
- NOAEL (rat [8]): 7.22 mg/kg/day
- LEL (rabbit [9]; [25]): 50 mg/kg/day
- LOAEL (rabbit [9]; [25]): 50 mg/kg/day
- NEL (rabbit [9]; [25]): 10 mg/kg/day
- NOAEL (rabbit [9]; [25]): 10 mg/kg/day
- LEL (rabbit [9]; [23]): 50 mg/kg/day
- LOAEL (rabbit [9]; [23]): 50 mg/kg/day
- NEL (rabbit [9]; [23]): 10 mg/kg/day
- NOAEL (rabbit [9]; [23]): 10 mg/kg/day
